From PubChem BioAssay AID2060360 (Molecular Pharmacology Branch, DTP, NCI, 2025)
pIC50: −log10 of the molar value.

Test system: 282377-053-R-J1-PDC tumor spheroids, viability
Experiment: Anticancer human tumor 282377-053-R-J1-PDC patient-derived colon adenocarcinoma cell line growth inhibition [TAK]
Conditions: spheroids with HUVEC and MSC; for pIC50: curve of first compound; for viability, T/C: stronger effect = lower value
Description: Combinatorial screen of targeted agents with TAK-243 and ipatasertib in multi-cell type tumor spheroids
A high-throughput screen of multi-cell type tumor spheroids was designed to identify active combinations of targeted small molecules and TAK-243 or ipatasertib. Complex spheroids include a stromal component modeled by human endothelial cells (HUVEC) and fibroblasts modeled by human mesenchymal stem cells (MSCs). The concentration ranges selected for each drug and investigational agent were based upon clinically achievable concentrations if the clinical Cmax of the agent was known.
Compounds. The drugs and investigational agents: TAK-243 (785004), ipatasertib (767898), everolimus (733504), selumetinib (741078), bortezomib (756655), trametinib (758246), ixazomib (758254), vemurafenib (761431), dabrafenib (764134), sapanisertib (764658), alpelisib (765974), and copanlisib (816437), were obtained from the National Cancer Institute (NCI) Developmental Therapeutics Program Chemical Repository. The FDA-approved anticancer drug set is available from the NCI Developmental Therapeutics Program. […] The stock solutions were prepared in dimethyl sulfoxide (DMSO, Sigma-Aldrich, St. Louis, MO, cat. D2650) at 800-fold the tested concentration and stored at -70 degrees C prior to their use. All drugs and investigational agents were tested over a range starting from a high concentration at or near the clinical Cmax and decreasing in half-log increments. If the clinical Cmax for an agent had not been determined, the highest concentration tested was 10 microM.
NCI60 Cell Culture. NCI60 cell lines were obtained from the NCI Developmental Therapeutics Program Tumor Repository. For each lot of cells, the Repository performed Applied Biosystems AmpFLSTR Identifiler testing with PCR amplification to confirm consistency with the published Identifier STR profile for each cell line. Cells were kept in continuous culture for no more than 20 passages. The optimal seeding densities for each of the cell lines at each time point assessed were determined prior to performing the concentration response studies. Briefly, the NCI60 human tumor lines were grown as monolayers in RPMI 1640 medium supplemented with 10% FBS and 2 mmol/L L-glutamine.
An additional 2 lines were from the NCI60 cell line panel including melanomas, MALME-3M and SK-MEL-2. Pooled donor human umbilical vein endothelial cells (HUVEC, Lonza, cat. CC-2519) and human mesenchymal stem cells (hMSC, Lonza, cat. PT-2501) were purchased from Lonza (Walkersville, MD).
PDMR cell lines were grown in complete medium (DC medium): Dulbecco's modified Eagle's medium (DMEM)/F12 supplemented with 5% fetal bovine serum (FBS), 2 mM L-glutamine, 100 U/mL penicillin and 100 µg/ml streptomycin, 0.4 µg/ml hydrocortisone, 10 ng/ml epidermal growth factor (EGF) recombinant human protein, 24 µg/mL adenine, and 0.1 mg/mL primocin. During culture from frozen stock vials, PDMR cells were cultured in the same medium containing 10 µM Y-27632 (see Table 3). The PDCs were cultured in complete DMEM/F12 media without 10 microM Y-27632 dihydrochloride for at least two passages prior to the screen. The pooled donor HUVEC and hMSC were cultured in endothelial cell growth medium 2 (PromoCell, Heidelberg, Germany, cat. C-22011) and mesenchymal stem cell growth medium 2 (PromoCell, cat. C-28009), respectively. For all experiments, HUVEC and hMSC were used at passages </=5.
For the pre-screen, cell seeding densities were determined from a titration spanning the range from 5,000 to 313 cells per well. The mct-spheroids including 60% malignant cells, 25% HUVEC and 15% MSC dispensed as a mixture into U-bottom Ultra-Low Attachment 384-well plates (Corning, NY)
High-throughput Drug Combination Screening.
Prior to their inoculation into 384-well plates, malignant cells, HUVEC, and hMSC were removed from T flasks using TrypLE express (Thermo Fisher Scientific, cat. 12605036) and harvested by centrifugation for 5 min at 233 x g. […]
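Further: spheroids exposed to drugs for seven days before readout.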

CC(C)CC(NC(=O)C(Cc1ccccc1)NC(=O)c1cnccn1)B(O)O (stereo not given) + CC(C)NCC(C(=O)N1CCN(c2ncnc3c2C(C)CC3O)CC1)c1ccc(Cl)cc1
pIC50 (second compound 0.3 µM): < 8.00
pIC50 (second compound 0.949 µM): < 8.00
pIC50 (second compound 3 µM): < 8.00
pIC50 (second compound 9.49 µM): 8.12
pIC50 (second compound 30 µM): 8.10
viability, T/C (second compound 0.3 µM, first compound 31.6 pM): 105%
viability, T/C (second compound 0.3 µM, first compound 0.0001 µM): 96%
viability, T/C (second compound 0.3 µM, first compound 0.000316 µM): 97.5%
viability, T/C (second compound 0.3 µM, first compound 0.001 µM): 98.3%
viability, T/C (second compound 0.3 µM, first compound 0.00316 µM): 98.5%
viability, T/C (second compound 0.3 µM, first compound 0.01 µM): 80.8%
viability, T/C (second compound 0.949 µM, first compound 31.6 pM): 93%
viability, T/C (second compound 0.949 µM, first compound 0.0001 µM): 90.7%
viability, T/C (second compound 0.949 µM, first compound 0.000316 µM): 92.5%
viability, T/C (second compound 0.949 µM, first compound 0.001 µM): 101%
viability, T/C (second compound 0.949 µM, first compound 0.00316 µM): 93.1%
viability, T/C (second compound 0.949 µM, first compound 0.01 µM): 56.5%
viability, T/C (second compound 3 µM, first compound 31.6 pM): 90.2%
viability, T/C (second compound 3 µM, first compound 0.0001 µM): 84.2%
viability, T/C (second compound 3 µM, first compound 0.000316 µM): 87.7%
viability, T/C (second compound 3 µM, first compound 0.001 µM): 86.6%
viability, T/C (second compound 3 µM, first compound 0.00316 µM): 78.8%
viability, T/C (second compound 3 µM, first compound 0.01 µM): 51.1%
viability, T/C (second compound 9.49 µM, first compound 31.6 pM): 83.2%
viability, T/C (second compound 9.49 µM, first compound 0.0001 µM): 83.7%
viability, T/C (second compound 9.49 µM, first compound 0.000316 µM): 83.8%
viability, T/C (second compound 9.49 µM, first compound 0.001 µM): 79.9%
viability, T/C (second compound 9.49 µM, first compound 0.00316 µM): 78.6%
viability, T/C (second compound 9.49 µM, first compound 0.01 µM): 40.6%
viability, T/C (second compound 30 µM, first compound 31.6 pM): 69.2%
viability, T/C (second compound 30 µM, first compound 0.0001 µM): 71.3%
viability, T/C (second compound 30 µM, first compound 0.000316 µM): 72.7%
viability, T/C (second compound 30 µM, first compound 0.001 µM): 68.5%
viability, T/C (second compound 30 µM, first compound 0.00316 µM): 65.3%
viability, T/C (second compound 30 µM, first compound 0.01 µM): 46.2%
